From US20080076760A1, “2,3,4,5-TETRAHYDRO-1H-1,5-BENZODIAZEPINE DERIVATIVE AND MEDICINAL COMPOSITION” (priority 2004, published 2008)

Tests used:
[1] = molecular target: human vasopressin V1a receptor (Homo sapiens, UniProt P37288); assay: Receptor binding study, [3H]AVP displacement on CHO cell membranes, human V1a; conditions: [3H]AVP displacement, CHO cell membrane, 25° C., one hour; read-out: Human V1a Ki
How it was run: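 Membrane binding in 50 mM Tris-HCl pH 7.4 with MgCl2 and 0.1% BSA, incubated 1 h at 25° C. Bound ligand collected by rapid filtration on glass fiber filters, washed with ice-cold buffer, and counted for radioactivity. Nonspecific binding defined with 1 μM unlabeled AVP.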

[2] = molecular target: human vasopressin V2 receptor (Homo sapiens, UniProt P30518); assay: Receptor binding study, [3H]AVP displacement on CHO cell membranes, human V2; conditions: [3H]AVP displacement, CHO cell membrane, 25° C., one hour; read-out: Human V2 Ki
Sequence of human vasopressin V2 receptor (P30518 whole entry): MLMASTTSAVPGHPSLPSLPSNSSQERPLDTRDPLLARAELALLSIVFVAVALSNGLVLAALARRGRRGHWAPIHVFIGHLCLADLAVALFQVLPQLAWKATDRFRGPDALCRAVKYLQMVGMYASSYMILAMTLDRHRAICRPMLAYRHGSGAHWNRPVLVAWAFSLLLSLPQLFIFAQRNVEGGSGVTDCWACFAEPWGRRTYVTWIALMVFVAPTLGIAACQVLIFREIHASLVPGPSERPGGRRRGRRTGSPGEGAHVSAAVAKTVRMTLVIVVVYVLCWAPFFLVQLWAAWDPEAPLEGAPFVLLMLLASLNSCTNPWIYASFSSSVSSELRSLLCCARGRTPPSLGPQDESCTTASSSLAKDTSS
How it was run: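 Membranes from CHO cells expressing human V2 receptor incubated with [3H]AVP (0.5-1.0 nM) and test compound at various concentrations in 50 mM Tris-HCl pH 7.4 with MgCl2 and 0.1% BSA, 1 h at 25 °C. Bound radioactivity counted after glass-fibre filtration; nonspecific binding defined with 1 μM unlabelled AVP.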

Sequence of human vasopressin V1a receptor (P37288 whole entry): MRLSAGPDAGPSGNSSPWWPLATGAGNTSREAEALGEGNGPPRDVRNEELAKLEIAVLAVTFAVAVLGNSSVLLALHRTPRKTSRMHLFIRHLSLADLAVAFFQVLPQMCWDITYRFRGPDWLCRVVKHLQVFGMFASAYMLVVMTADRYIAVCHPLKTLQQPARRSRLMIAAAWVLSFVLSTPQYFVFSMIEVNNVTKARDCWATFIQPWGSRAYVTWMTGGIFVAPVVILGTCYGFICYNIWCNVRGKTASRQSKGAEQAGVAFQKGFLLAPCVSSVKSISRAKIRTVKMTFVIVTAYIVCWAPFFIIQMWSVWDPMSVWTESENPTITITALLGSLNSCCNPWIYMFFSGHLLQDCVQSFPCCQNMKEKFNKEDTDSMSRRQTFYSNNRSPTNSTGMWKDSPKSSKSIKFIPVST

Row | Ki [1] [nM] | Ki [2] [nM] | Structure (SMILES)
1 | 0.36 | 309 | CCCN(C)CCCOc1cc(C(=O)N2CC[C@@H](C)Nc3ccccc32)ccc1-c1ccc(NC)cc1 [Example 130, N-methyl-2′-[3-[methyl(propyl)amino]propoxy]-4′-[[(4R)-4-methyl-2,3,4,5-tetrahydro-1H-1,5-benzodiazepin-1-yl]carbonyl][1,1′-biphenyl]-4-amine]
2 | 0.26 | 83 | CCCN(C)CCCOc1cc(C(=O)N2CC[C@H](C)Nc3ccccc32)ccc1-c1ccc(OC)cc1 [Example 131, N-[3-[[4′-methoxy-4-[[(4S)-4-methyl-2,3,4,5-tetrahydro-1H-1,5-benzodiazepin-1-yl]carbonyl][1,1′-biphenyl]-2-yl]oxy]propyl]-N-methyl-N-propylamine]
3 | 0.25 | 172 | CCCN(C)CCCOC(=O)c1cc(C(=O)N2CC[C@H](C)Nc3ccccc32)ccc1-c1ccc2[nH]ccc2c1 [Example 132, 3-[methyl(propyl)amino]propyl 2-(1H-indol-5-yl)-5-[[(4S)-4-methyl-2,3,4,5-tetrahydro-1H-1,5-benzodiazepin-1-yl]carbonyl]benzoate]
4 | 0.49 | 2.7 | C[C@H]1CCN(C(=O)c2ccc(-c3ccc4[nH]ccc4c3)c(N3CCOCC3)c2)c2ccccc2N1 [Example 134, (4S)-1-[4-(1H-indol-5-yl)-3-(4-morpholinyl)benzoyl]-4-methyl-2,3,4,5-tetrahydro-1H-1,5-benzodiazepine]
5 | 0.23 | 16 | C[C@H]1CCN(C(=O)c2ccc(-c3ccc4[nH]ccc4c3)c(C(=O)OCCCN3CCN(C)CC3)c2)c2ccccc2N1 [Example 136, 3-(4-methyl-1-piperazinyl)propyl 2-(1H-indol-5-yl)-5-[[(4S)-4-methyl-2,3,4,5-tetrahydro-1H-1,5-benzodiazepin-1-yl]carbonyl]benzoate]
6 | 0.23 | 34 | CCCN1CCC(OC(=O)c2cc(C(=O)N3CC[C@H](C)Nc4ccccc43)ccc2-c2ccc3[nH]ccc3c2)CC1 [Example 138]
7 | 0.45 | 10 | C[C@H]1CCN(C(=O)c2ccc(-c3ccc4[nH]ccc4c3)c(OCCCN3CCC(N)CC3)c2)c2ccccc2N1 [Example 141, 1-[3-[2-(1H-indol-5-yl)-5-[[(4S)-4-methyl-2,3,4,5-tetrahydro-1H-1,5-benzodiazepin-1-yl]carbonyl]phenoxy]propyl]-4-piperidinylamine]
8 | 0.11 | 28 | C[C@H]1CCN(C(=O)c2ccc(-c3ccc4[nH]ccc4c3)c(C(=O)OCCN(C)C)c2)c2ccccc2N1 [Example 144, 2-(dimethylamino)ethyl 2-(1H-indol-5-yl)-5-[[(4S)-4-methyl-2,3,4,5-tetrahydro-1H-1,5-benzodiazepin-1-yl]carbonyl]benzoate]
9 | 0.12 | 20 | CCN1CCC(OC(=O)c2cc(C(=O)N3CC[C@H](C)Nc4ccccc43)ccc2-c2ccc3[nH]ccc3c2)C1 (stereo partly drawn) [Example 145, 1-ethyl-3-pyrrolidinyl 2-(1H-indol-5-yl)-5-[[(4S)-4-methyl-2,3,4,5-tetrahydro-1H-1,5-benzodiazepin-1-yl]carbonyl]benzoate]
10 | 0.23 | 9.6 | CCCCN1CCN(CCOc2cc(C(=O)N3CC[C@H](C)Nc4ccccc43)ccc2-c2ccc3[nH]ccc3c2)CC1 [Example 148, (4S)-1-[3-[2-(4-butyl-1-piperazinyl)ethoxy]-4-(1H-indol-5-yl)benzoyl]-4-methyl-2,3,4,5-tetrahydro-1H-1,5-benzodiazepine]
11 | 0.29 | 1.9 | C[C@H]1CCN(C(=O)c2ccc(-c3ccc4[nH]ccc4c3)c(N3CCN(C)CC3)c2)c2ccccc2N1 [Example 149, (4S)-1-[4-(1H-indol-5-yl)-3-(4-methyl-1-piperazinyl)benzoyl]-4-methyl-2,3,4,5-tetrahydro-1H-1,5-benzodiazepine]
